The source of these data is patent US7129256B2, “Antiparkinsonism drugs” (Shionogi & Co., Ltd., priority 2000, dated 2006).

The subject of one assay is normal mice. Nature of the assay: spontaneous locomotor activity after oral administration to normal mice (SCANET). Set-up: spontaneous locomotor activity / spontaneous locomotor activity, Total: unit not given here. Particulars: for spontaneous locomotor activity, Total: total for 5 hours after administration. The class given is in vivo, C57BL/6 mice (male). The protocol: The enhancing effects of compound (IX) on the spontaneous locomotor activity were examined in normal mice.
Compound (IX) was orally administrated to C57BL/6 mice (male) and the spontaneous locomotor activity was measured with a locomotor activity measuring apparatus (SCANET, TOYO sangyo). Mice were familiarized to the cage of the apparatus for at least 60 min. Compound (IX) (1,3,10 mg/kg) or vehicle (vehicle, distilled water Otsuka) was administrated orally. The spontaneous locomotor activity was measured for 5 hours after the mice were returned to the cage.

For assay [1], the system named is mice pre-treated with reserpine. In words: reserpine-induced catalepsy test (bar test, catalepsy score). The class given is in vivo, ddy mice (male). The note with it: reserpine 5 mg/kg i.p. The protocol: The effects of compound (IX) in single administration and in combination with L-DOPA on cataleptic responses were examined in mice pre-treated with a monoamine-depleting drug, reserpine.
Reserpine (5 mg/kg, i.p., Apoplon Inj, Daiichi Pharmaceutical) was administrated to ddy mice (male). On the next day, compound (IX) (0.3, 1, 3 mg/kg, p.o.) with or without L-DOPA (25, 100 mg/kg, i.p., dissolved in 0.1N HCl and diluted with distilled water for injection (Otsuka Pharmaceutical)) was administrated to the mice and catalepsy test was performed after 1 hour. When L-DOPA was administrated, mice were pre-treated with carbidopa (25 mg/kg, i.p., 0.5% lactic acid) before 30 min.
The forelimbs or hindlimbs of each mouse were placed on a 4.5 cm high horizontal bar and the time was measured (cut off time 30 sec) until both legs reach the floor. The cataleptic responses were scored as follows (less than 5 sec.: 0 point, 5 sec. to less than 10 sec.: 1 point, 10 sec to less than 15 sec.: 2 points, 15 sec. to than 20 sec.: 3 points, 20 sec. to less than 25 sec.: 4 points, 25 sec. to less than 30 sec.: 5 points, 30 sec. or more: 6 points).
For forelimbs, the scores for 3 repetitive tests were summated. […] The catalepsy scores were calculated as the total scores for forelimbs and hindlimbs.

The test system of the next assay is MPTP-treated mice. In words: spontaneous locomotor activity of MPTP-treated mice. The note with it: MPTP 40 mg/kg × 2. The assay is classed as in vivo, C57BL/6 mice (male). The method, then:
Mice injected with a dopaminergic toxin, MPTP were used as a model for Parkinson's disease and the effects of single administration of compound (IX) on the reduction of the spontaneous locomotor activity caused by MPTP-treatment were examined.
MPTP (40 mg/kg, i.p., saline) was injected twice at 24-hr intervals to C57BL/6 mice (male), and the day after the last administration, the mice were placed in locomotor activity measuring apparatus. After 30 min, compound (IX) alone (0.3, 1, 3 mg/kg, p.o.) was administered.

Each structure is given as a SMILES string. Marks after values point to notes of the source that are not given here. Bounds are passed on as bounds.

With `C[C@@H]1OC(=O)N[C@@H]1C(=O)NC(Cc1cscn1)C(=O)N1CCC[C@H]1C` (stereo in doubt) [Compound (IX)], the spontaneous locomotor activity was 3737 in the assay on normal mice (1 mg/kg p.o., Time 0–30); 436 in the assay with normal mice (1 mg/kg p.o., Time 30–0 (before administration)); 842 in the assay on normal mice (1 mg/kg p.o., Time 30–60); 1016 in the assay on normal mice (1 mg/kg p.o., Time 60–30 (before administration)); 1178 with normal mice (1 mg/kg p.o., Time 60–90); 1281 in the assay with normal mice (1 mg/kg p.o., Time 90–120). Also, the spontaneous locomotor activity with normal mice (1 mg/kg p.o., Time 120–150) was 991; in the assay on normal mice (1 mg/kg p.o., Time 150–180) it was 273; in the assay with normal mice (1 mg/kg p.o., Time 180–210) it was 411; in the assay on normal mice (1 mg/kg p.o., Time 210–240) it was 135; with normal mice (1 mg/kg p.o., Time 240–270), 463; with normal mice (1 mg/kg p.o., Time 270–300), 366. The spontaneous locomotor activity in the assay with normal mice (3 mg/kg p.o., Time 0–30) is given as 3755; with normal mice (3 mg/kg p.o., Time 30–0 (before administration)) it was 782; in the assay on normal mice (3 mg/kg p.o., Time 30–60), 2626; with normal mice (3 mg/kg p.o., Time 60–30 (before administration)) it was 2349; in the assay with normal mice (3 mg/kg p.o., Time 60–90), 2690; in the assay with normal mice (3 mg/kg p.o., Time 90–120), 2632. The spontaneous locomotor activity in the assay with normal mice (3 mg/kg p.o., Time 120–150) is 2230; with normal mice (3 mg/kg p.o., Time 150–180), 868; with normal mice (3 mg/kg p.o., Time 180–210), 377; in the assay with normal mice (3 mg/kg p.o., Time 210–240) it was 940; in the assay with normal mice (3 mg/kg p.o., Time 240–270), 266; with normal mice (3 mg/kg p.o., Time 270–300), 597. For the same compound, the spontaneous locomotor activity with normal mice (10 mg/kg p.o., Time 0–30) was 5910; in the assay with normal mice (10 mg/kg p.o., Time 30–0 (before administration)), 401; in the assay on normal mice (10 mg/kg p.o., Time 30–60) it was 5079; in the assay on normal mice (10 mg/kg p.o., Time 60–30 (before administration)) it was 1700; in the assay on normal mice (10 mg/kg p.o., Time 60–90) it was 5485; in the assay on normal mice (10 mg/kg p.o., Time 90–120) it was 6138. The spontaneous locomotor activity in the assay on normal mice (10 mg/kg p.o., Time 120–150) turned out to be 5582; in the assay with normal mice (10 mg/kg p.o., Time 150–180), 5390; with normal mice (10 mg/kg p.o., Time 180–210), 4218; in the assay on normal mice (10 mg/kg p.o., Time 210–240) it was 3297; in the assay on normal mice (10 mg/kg p.o., Time 240–270), 2305; in the assay on normal mice (10 mg/kg p.o., Time 270–300) it was 1457. In addition, the “spontaneous locomotor activity, Total” value with normal mice (1 mg/kg p.o.) was 9676; with normal mice (3 mg/kg p.o., P < 0.05 vs vehicle), 16941*; in the assay with normal mice (10 mg/kg p.o., P < 0.01 vs vehicle) it was 44861**; in the assay with MPTP-treated mice (compound (IX) alone 0.3 mg/kg p.o.) it was 2731 ± 875; in the assay with MPTP-treated mice (compound (IX) alone 1 mg/kg p.o.), 4370 ± 1507. Further, the “dose that increased the spontaneous locomotor activity” value with normal mice (p.o., normal mice) is given as at least 3 mg/kg. Further, the “catalepsy score, mean” value in assay [1] (compound (IX) 0.3 mg/kg p.o. + L-DOPA 100 mg/kg i.p., 1 hour) was 17.4.

In the case of `N[C@@H](Cc1ccc(O)c(O)c1)C(=O)O` [L-DOPA, reference compound], the “catalepsy score, mean” value in assay [1] (L-DOPA 100 mg/kg i.p. + solvent p.o., 1 hour after administration) was 23.0.
